Results on two compounds are retold here after ChEMBL document CHEMBL3862033 (J Med Chem, 2016).

Structures are written as SMILES. pKi: −log10 of the molar value.

T1 sequence (P28223 whole entry): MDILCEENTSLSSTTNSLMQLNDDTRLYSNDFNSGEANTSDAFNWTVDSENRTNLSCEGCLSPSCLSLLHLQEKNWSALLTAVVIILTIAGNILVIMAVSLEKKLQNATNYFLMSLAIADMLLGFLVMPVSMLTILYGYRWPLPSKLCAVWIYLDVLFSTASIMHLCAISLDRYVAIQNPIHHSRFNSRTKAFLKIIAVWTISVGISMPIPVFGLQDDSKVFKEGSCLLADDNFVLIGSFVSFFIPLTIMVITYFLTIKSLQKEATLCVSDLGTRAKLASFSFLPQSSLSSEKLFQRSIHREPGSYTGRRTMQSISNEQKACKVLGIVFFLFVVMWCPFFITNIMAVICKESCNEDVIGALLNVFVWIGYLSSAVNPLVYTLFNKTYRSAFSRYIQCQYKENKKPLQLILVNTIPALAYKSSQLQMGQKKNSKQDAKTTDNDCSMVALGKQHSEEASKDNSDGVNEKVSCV
T2 sequence (P41595 whole entry): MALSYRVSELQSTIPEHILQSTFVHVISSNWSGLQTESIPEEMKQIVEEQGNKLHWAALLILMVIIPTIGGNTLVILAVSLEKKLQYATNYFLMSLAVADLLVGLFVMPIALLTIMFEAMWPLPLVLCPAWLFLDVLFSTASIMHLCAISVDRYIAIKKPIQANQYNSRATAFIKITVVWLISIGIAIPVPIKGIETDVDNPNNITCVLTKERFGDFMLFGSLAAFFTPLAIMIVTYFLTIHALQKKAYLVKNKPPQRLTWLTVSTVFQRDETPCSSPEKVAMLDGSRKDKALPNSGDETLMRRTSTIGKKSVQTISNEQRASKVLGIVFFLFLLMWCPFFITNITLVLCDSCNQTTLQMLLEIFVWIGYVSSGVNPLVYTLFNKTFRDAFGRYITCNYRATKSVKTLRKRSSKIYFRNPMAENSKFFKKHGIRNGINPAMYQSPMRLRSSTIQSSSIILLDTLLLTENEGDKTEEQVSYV
Chain of Adenosine receptor A2a (P29274 whole entry): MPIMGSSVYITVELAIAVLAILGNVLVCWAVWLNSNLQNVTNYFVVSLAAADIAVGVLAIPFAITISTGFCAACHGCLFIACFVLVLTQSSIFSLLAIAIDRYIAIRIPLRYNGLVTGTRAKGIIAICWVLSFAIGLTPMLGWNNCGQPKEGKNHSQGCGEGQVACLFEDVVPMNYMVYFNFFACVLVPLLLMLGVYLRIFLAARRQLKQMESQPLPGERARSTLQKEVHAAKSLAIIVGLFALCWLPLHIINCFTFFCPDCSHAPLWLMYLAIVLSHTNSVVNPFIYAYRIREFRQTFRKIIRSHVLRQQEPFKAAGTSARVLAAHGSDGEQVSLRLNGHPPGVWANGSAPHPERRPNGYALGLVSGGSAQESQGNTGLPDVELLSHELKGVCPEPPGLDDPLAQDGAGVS
Chain of 5-hydroxytryptamine receptor 4 (Homo sapiens) (Q13639 whole entry): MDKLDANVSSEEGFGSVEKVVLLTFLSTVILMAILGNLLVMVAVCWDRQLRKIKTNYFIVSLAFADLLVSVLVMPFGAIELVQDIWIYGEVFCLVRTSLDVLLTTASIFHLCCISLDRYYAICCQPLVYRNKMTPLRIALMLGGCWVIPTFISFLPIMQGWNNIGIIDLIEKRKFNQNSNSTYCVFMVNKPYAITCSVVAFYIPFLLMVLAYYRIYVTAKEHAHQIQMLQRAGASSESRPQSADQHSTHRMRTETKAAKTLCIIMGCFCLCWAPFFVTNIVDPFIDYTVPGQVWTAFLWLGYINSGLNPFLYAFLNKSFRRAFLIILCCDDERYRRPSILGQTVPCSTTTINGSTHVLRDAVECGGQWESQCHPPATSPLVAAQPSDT
Chain of 5-hydroxytryptamine receptor 5A (Homo sapiens) (P47898 whole entry): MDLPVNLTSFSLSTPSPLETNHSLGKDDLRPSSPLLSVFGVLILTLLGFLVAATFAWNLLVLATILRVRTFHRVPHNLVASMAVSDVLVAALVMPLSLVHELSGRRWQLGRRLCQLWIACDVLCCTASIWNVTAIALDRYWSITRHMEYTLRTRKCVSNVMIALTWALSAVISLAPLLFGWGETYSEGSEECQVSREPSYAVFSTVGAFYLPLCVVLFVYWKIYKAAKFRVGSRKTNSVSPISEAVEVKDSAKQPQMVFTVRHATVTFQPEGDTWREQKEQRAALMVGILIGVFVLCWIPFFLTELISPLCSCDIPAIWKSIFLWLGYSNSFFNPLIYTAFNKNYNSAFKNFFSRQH
Chain of 5-hydroxytryptamine receptor 1E (Homo sapiens) (P28566 whole entry): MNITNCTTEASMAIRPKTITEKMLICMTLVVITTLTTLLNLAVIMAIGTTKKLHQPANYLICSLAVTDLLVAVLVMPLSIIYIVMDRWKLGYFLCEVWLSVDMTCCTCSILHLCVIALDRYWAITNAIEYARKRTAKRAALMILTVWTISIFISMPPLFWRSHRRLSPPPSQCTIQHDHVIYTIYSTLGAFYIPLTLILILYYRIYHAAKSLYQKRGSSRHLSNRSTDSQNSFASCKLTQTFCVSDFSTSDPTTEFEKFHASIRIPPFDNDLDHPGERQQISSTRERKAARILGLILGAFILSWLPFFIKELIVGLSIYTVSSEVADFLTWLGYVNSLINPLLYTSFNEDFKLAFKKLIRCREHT

One test has as its target 5-hydroxytryptamine receptor 5A (Homo sapiens) (UniProt P47898). Description: Displacement of [3H]LSD from human 5-HT5A receptor expressed in Flp-In-CHO cell membranes incubated for 90 mins under dark condition by microbeta scintillation counting method relative to control.
Conditions: not given
Details: concentration or dose not given beside the values. Background: Loss of bound radioactivity is the signal in a displacement assay; it reports binding, not function.
The term inhibition denotes the drop in the measured response relative to a control, in per cent. Turning to `Fc1ccc(C#Cc2nc(NCc3cccc(Cl)c3)c3nc[nH]c3n2)cc1F`, the inhibition was below 50%.
Take `CN(C)c1nc(Cl)nc2c1ncn2[C@H]1[C@H](O)[C@H](O)[C@]2(CO)C[C@H]12`: the inhibition was below 50%.

A further test concerns the target T1, 5-hydroxytryptamine receptor 2A (Homo sapiens, UniProt P28223). The experiment in a line: Displacement of [3H]ketanserin from human 5-HT2A receptor expressed in HEK-T cell membranes incubated for 90 mins under dark condition by microbeta scintillation counting method.
Conditions: not given
For orientation: pKi means −log10 of the Ki, conventionally taken in molar units. The compound `Fc1ccc(C#Cc2nc(NCc3cccc(Cl)c3)c3nc[nH]c3n2)cc1F` gave a negative-log Ki (pKi) below 5.00.
`CN(C)c1nc(Cl)nc2c1ncn2[C@H]1[C@H](O)[C@H](O)[C@]2(CO)C[C@H]12` had a negative logarithm of the Ki (pKi) below 5.00.

A further test addresses T2, 5-hydroxytryptamine receptor 2B (Homo sapiens, UniProt P41595).
Experiment: not given
The conditions noted are these: HEK293, at 10 µM.
`Fc1ccc(C#Cc2nc(NCc3cccc(Cl)c3)c3nc[nH]c3n2)cc1F` returned an inhibition above 50%.
On the same count and under the same terms, the figure for `CN(C)c1nc(Cl)nc2c1ncn2[C@H]1[C@H](O)[C@H](O)[C@]2(CO)C[C@H]12` is above 50%.

The target in a further test is 5-hydroxytryptamine receptor 7 (Homo sapiens) (UniProt P34969). The experiment in a line: Displacement of [3H]LSD from human 5-HT7A receptor expressed in HEK cell membranes at 10 uM incubated for 90 mins under dark condition by microbeta scintillation counting method relative to control. The conditions noted are these: HEK293.
Chain of 5-hydroxytryptamine receptor 7 (Homo sapiens) (P34969 whole entry): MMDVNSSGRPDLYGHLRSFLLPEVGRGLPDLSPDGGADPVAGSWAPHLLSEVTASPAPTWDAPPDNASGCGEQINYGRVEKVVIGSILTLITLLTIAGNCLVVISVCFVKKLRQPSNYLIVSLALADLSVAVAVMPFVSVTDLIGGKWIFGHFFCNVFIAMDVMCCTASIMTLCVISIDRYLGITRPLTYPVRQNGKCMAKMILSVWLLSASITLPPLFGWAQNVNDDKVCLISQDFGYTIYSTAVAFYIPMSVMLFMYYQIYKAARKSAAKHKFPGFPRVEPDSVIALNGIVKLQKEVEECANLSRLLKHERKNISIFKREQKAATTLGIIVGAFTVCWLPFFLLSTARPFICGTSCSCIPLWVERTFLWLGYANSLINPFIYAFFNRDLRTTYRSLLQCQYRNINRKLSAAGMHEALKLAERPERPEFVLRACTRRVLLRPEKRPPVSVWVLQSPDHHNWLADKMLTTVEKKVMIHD
Turning to `Fc1ccc(C#Cc2nc(NCc3cccc(Cl)c3)c3nc[nH]c3n2)cc1F`, the inhibition is below 50%.
Same read-out and setting: the figure for `CN(C)c1nc(Cl)nc2c1ncn2[C@H]1[C@H](O)[C@H](O)[C@]2(CO)C[C@H]12` is below 50%.

The target of the next test is T2, 5-hydroxytryptamine receptor 2B. Description: biochemical. The format is cell-based, HEK293.
Conditions: not given
With `CN(C)c1nc(Cl)nc2c1ncn2[C@H]1[C@H](O)[C@H](O)[C@]2(CO)C[C@H]12`, the pKi was 5.32.

Another test has as its target T3, 5-hydroxytryptamine receptor 2C (Homo sapiens, UniProt P28335).
T3 sequence (P28335 whole entry): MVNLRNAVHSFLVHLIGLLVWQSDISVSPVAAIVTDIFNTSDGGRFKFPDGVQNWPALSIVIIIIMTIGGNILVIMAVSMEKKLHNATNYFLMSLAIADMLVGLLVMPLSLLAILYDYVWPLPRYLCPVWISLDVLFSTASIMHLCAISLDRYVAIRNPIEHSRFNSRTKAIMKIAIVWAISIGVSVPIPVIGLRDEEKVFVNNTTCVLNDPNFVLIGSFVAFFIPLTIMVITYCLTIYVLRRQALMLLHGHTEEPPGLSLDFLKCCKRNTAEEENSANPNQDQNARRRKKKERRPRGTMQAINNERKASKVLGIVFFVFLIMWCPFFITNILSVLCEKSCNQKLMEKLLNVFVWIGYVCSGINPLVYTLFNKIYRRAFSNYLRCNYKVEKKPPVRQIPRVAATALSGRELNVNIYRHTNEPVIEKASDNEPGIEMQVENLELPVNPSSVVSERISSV
Description: Displacement of [3H]mesulergine from human 5-HT2CR expressed in Flp-In HEK cell membranes incubated for 90 mins under dark condition by microbeta scintillation counting method. On the set-up: species or system HEK293.
Conditions: not given
Take `CN(C)c1nc(Cl)nc2c1ncn2[C@H]1[C@H](O)[C@H](O)[C@]2(CO)C[C@H]12`: the pKi was 5.09.

For another test, the target named is T1, 5-hydroxytryptamine receptor 2A. The experiment in a line: Displacement of [3H]ketanserin from human 5-HT2A receptor expressed in HEK-T cell membranes at 10 uM incubated for 90 mins under dark condition by microbeta scintillation counting method relative to control.
Conditions: not given
`Fc1ccc(C#Cc2nc(NCc3cccc(Cl)c3)c3nc[nH]c3n2)cc1F` gave an inhibition below 10%.
The same measure, in the same setting: the figure for `CN(C)c1nc(Cl)nc2c1ncn2[C@H]1[C@H](O)[C@H](O)[C@]2(CO)C[C@H]12` is below 10%.

The next test deals with T4, 5-hydroxytryptamine receptor 3A (Homo sapiens) (UniProt P46098).
T4 sequence (whole entry): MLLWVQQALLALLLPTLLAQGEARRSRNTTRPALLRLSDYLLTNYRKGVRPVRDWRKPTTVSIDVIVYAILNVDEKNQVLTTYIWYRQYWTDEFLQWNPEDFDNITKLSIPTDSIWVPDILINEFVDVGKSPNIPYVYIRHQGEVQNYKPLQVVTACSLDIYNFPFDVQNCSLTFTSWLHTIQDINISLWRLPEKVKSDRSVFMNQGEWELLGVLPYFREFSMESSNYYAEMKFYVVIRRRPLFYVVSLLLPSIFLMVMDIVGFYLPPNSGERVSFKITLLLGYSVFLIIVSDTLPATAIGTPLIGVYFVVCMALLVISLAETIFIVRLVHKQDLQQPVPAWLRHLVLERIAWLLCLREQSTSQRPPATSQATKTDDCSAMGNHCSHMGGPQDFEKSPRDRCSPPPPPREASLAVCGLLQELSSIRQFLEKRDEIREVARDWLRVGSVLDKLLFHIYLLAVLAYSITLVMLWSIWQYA
The experiment in a line: Displacement of [3H]GR65630 from human 5-HT3 receptor expressed in HEK-T cell membranes at 10 uM incubated for 90 mins under dark condition by microbeta scintillation counting method relative to control.
Conditions: not given
For the compound `Fc1ccc(C#Cc2nc(NCc3cccc(Cl)c3)c3nc[nH]c3n2)cc1F`, the inhibition was below 50%.
In turn, `CN(C)c1nc(Cl)nc2c1ncn2[C@H]1[C@H](O)[C@H](O)[C@]2(CO)C[C@H]12` showed an inhibition below 50%.

Another test addresses 5-hydroxytryptamine receptor 4 (Homo sapiens) (UniProt Q13639). Description: Displacement of [3H]GR113808 from human 5-HT4 receptor at 10 uM incubated for 90 mins under dark condition by microbeta scintillation counting method relative to control.
Conditions: not given
`Fc1ccc(C#Cc2nc(NCc3cccc(Cl)c3)c3nc[nH]c3n2)cc1F` returned an inhibition below 50%.
As for `CN(C)c1nc(Cl)nc2c1ncn2[C@H]1[C@H](O)[C@H](O)[C@]2(CO)C[C@H]12`, the inhibition is below 50%.

The next test concerns the target T5, 5-hydroxytryptamine receptor 2C (Homo sapiens) (UniProt P28335).
T5 sequence (whole entry): T3 sequence (P28335 whole entry)
The experiment in a line: Displacement of [3H]mesulergine from human 5-HT2CR expressed in Flp-In HEK cell membranes at 10 uM incubated for 90 mins under dark condition by microbeta scintillation counting method relative to control. The conditions noted are these: HEK293.
Take `Fc1ccc(C#Cc2nc(NCc3cccc(Cl)c3)c3nc[nH]c3n2)cc1F`: the inhibition worked out at 11%.
Same read-out and setting: the figure for `CN(C)c1nc(Cl)nc2c1ncn2[C@H]1[C@H](O)[C@H](O)[C@]2(CO)C[C@H]12` is above 50%.

Another test concerns the target 5-hydroxytryptamine receptor 1E (Homo sapiens) (UniProt P28566). The experiment in a line: Displacement of [3H]5-HT from human 5-HT1E receptor expressed in HEK cell membranes at 10 uM incubated for 90 mins under dark condition by microbeta scintillation counting method relative to control. The conditions noted are these: HEK293.
Take `Fc1ccc(C#Cc2nc(NCc3cccc(Cl)c3)c3nc[nH]c3n2)cc1F`: the inhibition was below 50%.
For the compound `CN(C)c1nc(Cl)nc2c1ncn2[C@H]1[C@H](O)[C@H](O)[C@]2(CO)C[C@H]12`, the inhibition is below 50%.

In another test the target is 5-hydroxytryptamine receptor 1D (Homo sapiens) (UniProt P28221). The experiment in a line: Displacement of [3H]5-CT from human 5-HT1D receptor expressed in HEK-T cell membranes at 10 uM incubated for 90 mins under dark condition by microbeta scintillation counting method relative to control.
Chain of 5-hydroxytryptamine receptor 1D (Homo sapiens) (P28221 whole entry): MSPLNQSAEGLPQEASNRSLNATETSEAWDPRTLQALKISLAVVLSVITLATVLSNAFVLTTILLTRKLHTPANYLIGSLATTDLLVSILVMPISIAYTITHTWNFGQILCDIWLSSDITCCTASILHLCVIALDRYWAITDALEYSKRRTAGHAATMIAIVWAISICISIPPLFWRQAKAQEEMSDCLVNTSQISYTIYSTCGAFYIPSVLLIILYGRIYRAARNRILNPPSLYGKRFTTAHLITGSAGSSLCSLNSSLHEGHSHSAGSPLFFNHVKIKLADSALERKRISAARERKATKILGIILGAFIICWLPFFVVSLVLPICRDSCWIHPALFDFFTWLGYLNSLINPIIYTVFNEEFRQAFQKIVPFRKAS
Conditions: not given
`Fc1ccc(C#Cc2nc(NCc3cccc(Cl)c3)c3nc[nH]c3n2)cc1F` returned an inhibition below 50%.
Same read-out and setting: the value for `CN(C)c1nc(Cl)nc2c1ncn2[C@H]1[C@H](O)[C@H](O)[C@]2(CO)C[C@H]12` was below 50%.

In another test the target is T6, 5-hydroxytryptamine receptor 1A (Homo sapiens) (UniProt P08908).
T6 sequence (whole entry): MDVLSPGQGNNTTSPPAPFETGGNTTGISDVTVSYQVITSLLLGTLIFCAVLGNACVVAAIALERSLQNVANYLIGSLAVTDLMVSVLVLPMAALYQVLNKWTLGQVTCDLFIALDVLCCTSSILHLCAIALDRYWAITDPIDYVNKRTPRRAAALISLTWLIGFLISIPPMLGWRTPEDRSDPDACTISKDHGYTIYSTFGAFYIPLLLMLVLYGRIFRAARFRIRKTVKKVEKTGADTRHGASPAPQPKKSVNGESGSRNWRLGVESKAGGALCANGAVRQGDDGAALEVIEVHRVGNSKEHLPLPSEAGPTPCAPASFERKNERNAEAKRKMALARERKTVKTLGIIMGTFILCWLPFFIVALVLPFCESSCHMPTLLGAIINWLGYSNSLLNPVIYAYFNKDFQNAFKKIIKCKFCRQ
The experiment in a line: Displacement of [3H]WAY100635 from human 5-HT1AR expressed in CHO cell membranes at 10 uM incubated for 90 mins under dark condition by microbeta scintillation counting method relative to control.
Conditions: not given
As for `Fc1ccc(C#Cc2nc(NCc3cccc(Cl)c3)c3nc[nH]c3n2)cc1F`, the inhibition was below 50%.
The same measure, in the same setting: the value for `CN(C)c1nc(Cl)nc2c1ncn2[C@H]1[C@H](O)[C@H](O)[C@]2(CO)C[C@H]12` was below 50%.

Another test addresses Adenosine receptor A2a (Homo sapiens, UniProt P29274). Description: Displacement of [3 H]2-[p-(2-carboxyethyl)phenyl-ethylamino]-5'-N-ethylcarboxamidoadenosine from recombinant human adenosine receptor A2A expressed in HEK293 cell membranes at 10 uM after 60 mins by liquid scintillation counting method relative to control.
Conditions: not given
With `Fc1ccc(C#Cc2nc(NCc3cccc(Cl)c3)c3nc[nH]c3n2)cc1F`, the inhibition is below 10%.
On the same count and under the same terms, the value for `CN(C)c1nc(Cl)nc2c1ncn2[C@H]1[C@H](O)[C@H](O)[C@]2(CO)C[C@H]12` was below 10%.

The target in another test is 5-hydroxytryptamine receptor 1B (Homo sapiens) (UniProt P28222). Description: Displacement of [3H]5-CT from human 5-HT1BR expressed in HEK cell membranes at 10 uM incubated for 90 mins under dark condition by microbeta scintillation counting method relative to control. The conditions noted are these: HEK293.
Chain of 5-hydroxytryptamine receptor 1B (Homo sapiens) (P28222 whole entry): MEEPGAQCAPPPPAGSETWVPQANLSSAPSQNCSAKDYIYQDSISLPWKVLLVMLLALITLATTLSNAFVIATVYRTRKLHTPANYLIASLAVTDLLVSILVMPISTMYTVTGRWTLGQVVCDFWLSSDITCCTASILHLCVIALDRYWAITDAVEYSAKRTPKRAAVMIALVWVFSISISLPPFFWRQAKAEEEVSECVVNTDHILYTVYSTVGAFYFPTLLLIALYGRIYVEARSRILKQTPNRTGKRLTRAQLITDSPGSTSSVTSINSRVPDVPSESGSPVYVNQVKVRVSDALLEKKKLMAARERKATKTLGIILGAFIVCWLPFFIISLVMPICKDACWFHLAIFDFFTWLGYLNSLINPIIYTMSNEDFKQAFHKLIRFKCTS
`Fc1ccc(C#Cc2nc(NCc3cccc(Cl)c3)c3nc[nH]c3n2)cc1F`: the inhibition is below 50%.
In turn, `CN(C)c1nc(Cl)nc2c1ncn2[C@H]1[C@H](O)[C@H](O)[C@]2(CO)C[C@H]12` registered an inhibition below 50%.

In the next test the target is 5-hydroxytryptamine receptor 6 (Homo sapiens) (UniProt P50406). The experiment in a line: Displacement of [3H]LSD from human 5-HT6 receptor expressed in HEK cell membranes at 10 uM incubated for 90 mins under dark condition by microbeta scintillation counting method relative to control. The conditions noted are these: HEK293.
Chain of 5-hydroxytryptamine receptor 6 (Homo sapiens) (P50406 whole entry): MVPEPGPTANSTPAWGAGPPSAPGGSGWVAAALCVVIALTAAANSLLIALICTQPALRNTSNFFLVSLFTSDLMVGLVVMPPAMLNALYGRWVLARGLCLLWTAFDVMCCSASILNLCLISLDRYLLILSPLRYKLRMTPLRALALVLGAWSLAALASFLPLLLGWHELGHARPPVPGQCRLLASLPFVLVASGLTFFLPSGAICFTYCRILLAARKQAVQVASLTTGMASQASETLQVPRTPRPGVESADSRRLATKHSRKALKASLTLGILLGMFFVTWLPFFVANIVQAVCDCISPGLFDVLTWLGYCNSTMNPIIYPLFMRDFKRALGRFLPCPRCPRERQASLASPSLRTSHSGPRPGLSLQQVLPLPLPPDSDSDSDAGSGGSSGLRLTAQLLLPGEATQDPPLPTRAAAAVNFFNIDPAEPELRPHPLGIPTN
On to `Fc1ccc(C#Cc2nc(NCc3cccc(Cl)c3)c3nc[nH]c3n2)cc1F`, for which the inhibition is below 50%.
Compound `CN(C)c1nc(Cl)nc2c1ncn2[C@H]1[C@H](O)[C@H](O)[C@]2(CO)C[C@H]12` had an inhibition below 50%.

The next test deals with T7, Adenosine receptor A1 (Homo sapiens) (UniProt P30542).
T7 sequence (whole entry): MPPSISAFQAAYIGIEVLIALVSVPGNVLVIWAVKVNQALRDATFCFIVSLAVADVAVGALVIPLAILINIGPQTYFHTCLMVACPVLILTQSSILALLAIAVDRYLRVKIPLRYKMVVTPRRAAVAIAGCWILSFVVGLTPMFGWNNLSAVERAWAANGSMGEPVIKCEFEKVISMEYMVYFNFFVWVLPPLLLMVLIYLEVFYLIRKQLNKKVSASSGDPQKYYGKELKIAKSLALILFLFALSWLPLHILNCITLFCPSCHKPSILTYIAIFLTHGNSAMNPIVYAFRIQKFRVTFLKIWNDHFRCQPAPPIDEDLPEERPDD
Description: Displacement of [3H]N6-phenylisopropyladenosine from recombinant human A1AR expressed in CHO cell membranes at 10 uM after 60 mins by liquid scintillation counting method relative to control.
Conditions: not given
For `Fc1ccc(C#Cc2nc(NCc3cccc(Cl)c3)c3nc[nH]c3n2)cc1F`, the inhibition is below 10%.
In the case of `CN(C)c1nc(Cl)nc2c1ncn2[C@H]1[C@H](O)[C@H](O)[C@]2(CO)C[C@H]12`, the inhibition stood at 11%.
